Measurements reported in patent publication US20040126792A1, “Synthesis and applications of trinucleotide pCpCpA-3'-NH-aminoacyl derivatives” (priority 2002, published 2004).

Assays:
[1] = tested on: S30 extract peptidyltransferase; assay: Peptidyltransferase gel-shift assay in the presence of antibiotics, S30 extract; type: biochemical, E. coli; settings: 100 μM antibiotic, substrates CCA-Met-Biotin and 32P-CCA-NH-Phe, 37° C.
Experimental: (§1) Assay reactions were carried out with: 50S or 70S subunits from the bacterial ribosome (prepared from E. coli MRE600), or S30 extract (purchased from Promega); 50 μM CCA-Met-Biotin or tRNA-Met-Biotin; trace amounts of ^32P-CCA-NH-Phe (˜0.5 nM); 100 μM antibiotic in the presence of 50 mM Tris•HCl (pH 7.5); 35 mM MgCl2; 100 mM NH4Cl; and 1000 mM KCl, at 37° C. For each reaction, the same amount of 50S or 70S (10 pmol) was included, but the S30 concentration was not determined.
(§2) Reactions were initiated by addition of ^32P-CCA-NH-Phe. A 1-μL aliquot of the reaction mixture was removed at specific time points, quenched with 2 μL quench buffer (formamide +0.05% xylene cyanol), and loaded on 24%/7.5 M urea polyacrylamide denaturing gel.
(§3) The substrates used in these reactions were CCA-Met-Biotin and ^32P-CCA-NH-Phe. The lower band corresponds to the labeled ^32P-CCA-NH-Phe and the top band is the dipeptide product (^32P-CCA-NH-Phe-Met-Biotin).

[2] = tested on: 70S ribosome peptidyltransferase; assay: Peptidyltransferase activity assay in the presence of antibiotics, 70S ribosome; settings: 100 μM antibiotic; 70S versus 50S
Experimental: as §1, §2, §3
(§4) Reaction conditions for these studies were the same as described above.

[3] = tested on: 50S ribosome peptidyltransferase; assay: Peptidyltransferase activity assay in the presence of antibiotics, 50S ribosome; settings: 100 μM antibiotic, tRNA-Met-Biotin versus CCA-Met-Biotin substrate
Experimental: as §1
Reactions were initiated by addition of ^32P-CCA-NH-Phe. A 1-μL aliquot of the reaction mixture was removed at specific time points, quenched with 2 μL quench buffer (formamide +0.05% xylene cyanol), and loaded on 24%/7.5 M urea polyacrylamide denaturing gel. Reaction products were quantitated with a Molecular Dynamics PhosphorImager™, and the fraction of individual product relative to total reactants was plotted against time (see FIGS. 11-14).
as §4

| Structure (SMILES) | Inhibition of peptidyltransferase activity (gel-shift, FIG. 10A) [1] | Inhibition of 70S reactions compared with 50S reactions [2] | Effect on activity of 50S-tRNA compared with 50S-CCA [3] |
| --- | --- | --- | --- |
| O=C(N[C@H](CO)[C@H](O)c1ccc([N+](=O)[O-])cc1)C(Cl)Cl [chloramphenicol] | greatly inhibited |  |  |
| COc1ccc(C[C@H](N)C(=O)N[C@H]2[C@@H](O)[C@H](n3cnc4c(N(C)C)ncnc43)O[C@@H]2CO)cc1 [puromycin] | does not significantly inhibit | much more strongly than 50S reactions |  |
| [H]/N=C(/N)N[C@H]1[C@H](O)[C@@H](O)[C@H](O[C@@H]2O[C@@H](C)[C@](O)(C=O)[C@H]2O[C@@H]2O[C@@H](CO)[C@H](O)[C@@H](O)[C@@H]2NC)[C@@H](N/C(N)=N\[H])[C@@H]1O [streptomycin] | not inhibited |  |  |
| CC[C@H]1OC(=O)[C@H](C)[C@@H](O[C@H]2C[C@@](C)(OC)[C@@H](O)[C@H](C)O2)[C@H](C)[C@@H](O[C@@H]2O[C@H](C)C[C@H](N(C)C)[C@H]2O)[C@](C)(O)C[C@@H](C)C(=O)[C@H](C)[C@@H](O)[C@]1(C)O [erythromycin] | greatly inhibited | much more strongly than 50S reactions |  |
| CSC[S@+]([O-])C[C@H](CO)NC(=O)/C=C/c1c(C)[nH]c(=O)[nH]c1=O [sparsomycin] | greatly inhibited |  | much less unaffected than that of 50S-CCA |
